The target of assay [1] is T1, Ectonucleoside triphosphate diphosphohydrolase 8 (Homo sapiens) (UniProt Q5MY95).
T1 sequence (whole entry): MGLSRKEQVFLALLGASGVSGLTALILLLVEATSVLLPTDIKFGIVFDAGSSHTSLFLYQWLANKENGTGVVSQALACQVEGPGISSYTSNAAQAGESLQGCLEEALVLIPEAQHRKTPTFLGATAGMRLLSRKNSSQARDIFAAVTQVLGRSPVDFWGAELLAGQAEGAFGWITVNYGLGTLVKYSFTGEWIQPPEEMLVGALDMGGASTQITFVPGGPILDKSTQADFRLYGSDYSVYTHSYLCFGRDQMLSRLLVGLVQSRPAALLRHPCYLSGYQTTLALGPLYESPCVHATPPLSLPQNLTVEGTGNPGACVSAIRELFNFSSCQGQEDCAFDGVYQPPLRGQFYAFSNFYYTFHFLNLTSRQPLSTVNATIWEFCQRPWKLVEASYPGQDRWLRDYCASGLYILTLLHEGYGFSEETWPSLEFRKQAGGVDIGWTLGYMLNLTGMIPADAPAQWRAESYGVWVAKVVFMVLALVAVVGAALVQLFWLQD
In words: Inhibition of human NTPdase-8 expressed in COS7 cell membranes at 100 uM using ATP as substrate preincubated for 3 mins followed by susbtrate addition and measured after 10 mins by malachite green dye based method.

For assay [2], the target named is P2Y purinoceptor 4 (Homo sapiens) (UniProt P51582). In words: Agonist activity at human P2Y4 receptor expressed in AD293 cells assessed as inositol-1-phosphate accumulation at 0.1 to 100 uM. Type of assay: functional, cell-based.
P2Y purinoceptor 4 (Homo sapiens), sequence (P51582 whole entry): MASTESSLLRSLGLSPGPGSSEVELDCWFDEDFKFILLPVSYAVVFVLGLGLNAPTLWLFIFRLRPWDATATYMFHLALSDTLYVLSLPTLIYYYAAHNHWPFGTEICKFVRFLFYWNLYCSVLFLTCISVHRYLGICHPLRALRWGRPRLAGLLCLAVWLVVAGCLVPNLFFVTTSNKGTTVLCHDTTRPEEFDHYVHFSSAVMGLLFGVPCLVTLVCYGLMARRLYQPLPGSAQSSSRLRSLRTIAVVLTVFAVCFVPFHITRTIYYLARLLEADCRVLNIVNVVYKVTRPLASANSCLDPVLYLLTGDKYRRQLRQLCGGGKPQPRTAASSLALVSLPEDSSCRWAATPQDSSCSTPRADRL
For assay [3], the target named is P2Y purinoceptor 6 (Homo sapiens) (UniProt Q15077). In words: Antagonist activity at human P2Y6 receptor expressed in AD293 cells assessed as inhibition of UDP-induced inositol-1-phosphate accumulation at 0.1 to 100 uM. Type of assay: functional, cell-based.
P2Y purinoceptor 6 (Homo sapiens), sequence (Q15077 whole entry): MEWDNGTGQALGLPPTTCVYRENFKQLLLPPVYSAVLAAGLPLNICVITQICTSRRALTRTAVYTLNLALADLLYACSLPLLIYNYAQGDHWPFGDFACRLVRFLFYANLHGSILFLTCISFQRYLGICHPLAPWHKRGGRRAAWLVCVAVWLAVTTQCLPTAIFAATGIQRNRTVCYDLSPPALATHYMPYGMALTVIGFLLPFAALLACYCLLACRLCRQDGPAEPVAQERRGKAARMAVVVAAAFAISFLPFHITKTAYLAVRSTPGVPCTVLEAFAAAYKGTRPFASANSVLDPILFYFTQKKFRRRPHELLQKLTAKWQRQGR
The target in assay [4] is P2Y purinoceptor 4 (Homo sapiens) (UniProt P51582). In words: Antagonist activity at human P2Y4 receptor expressed in AD293 cells assessed as inhibition of UTP-induced inositol-1-phosphate accumulation at 0.1 to 100 uM. Type of assay: functional, cell-based.
The target in assay [5] is T2, Ectonucleoside triphosphate diphosphohydrolase 3 (Homo sapiens) (UniProt O75355).
T2 sequence (whole entry): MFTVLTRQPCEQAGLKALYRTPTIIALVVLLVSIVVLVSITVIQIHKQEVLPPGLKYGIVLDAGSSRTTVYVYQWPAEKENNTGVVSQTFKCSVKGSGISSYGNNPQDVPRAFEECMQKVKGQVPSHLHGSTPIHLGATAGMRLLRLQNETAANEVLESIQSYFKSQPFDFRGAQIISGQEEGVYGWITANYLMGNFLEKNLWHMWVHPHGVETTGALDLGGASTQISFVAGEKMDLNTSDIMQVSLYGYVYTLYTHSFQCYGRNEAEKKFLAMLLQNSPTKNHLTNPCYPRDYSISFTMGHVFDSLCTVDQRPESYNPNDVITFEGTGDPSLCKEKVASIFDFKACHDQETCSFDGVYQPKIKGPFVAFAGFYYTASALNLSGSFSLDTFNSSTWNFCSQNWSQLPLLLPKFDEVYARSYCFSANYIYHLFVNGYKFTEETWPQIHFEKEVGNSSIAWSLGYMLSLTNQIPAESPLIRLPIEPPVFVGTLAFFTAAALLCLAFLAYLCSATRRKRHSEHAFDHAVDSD
In words: Inhibition of human NTPdase-3 expressed in COS7 cell membranes at 100 uM using ATP as substrate preincubated for 3 mins followed by susbtrate addition and measured after 10 mins by malachite green dye based method.

Assay [6] has as its target P2Y purinoceptor 2 (Homo sapiens) (UniProt P41231). In words: Antagonist activity at human P2Y2 receptor expressed in AD293 cells assessed as inhibition of UTP-induced inositol-1-phosphate accumulation at 100 uM. Type of assay: functional, cell-based.
For assay [7], the target named is T3, Ectonucleoside triphosphate diphosphohydrolase 2 (Homo sapiens) (UniProt Q9Y5L3).
T3 sequence (whole entry): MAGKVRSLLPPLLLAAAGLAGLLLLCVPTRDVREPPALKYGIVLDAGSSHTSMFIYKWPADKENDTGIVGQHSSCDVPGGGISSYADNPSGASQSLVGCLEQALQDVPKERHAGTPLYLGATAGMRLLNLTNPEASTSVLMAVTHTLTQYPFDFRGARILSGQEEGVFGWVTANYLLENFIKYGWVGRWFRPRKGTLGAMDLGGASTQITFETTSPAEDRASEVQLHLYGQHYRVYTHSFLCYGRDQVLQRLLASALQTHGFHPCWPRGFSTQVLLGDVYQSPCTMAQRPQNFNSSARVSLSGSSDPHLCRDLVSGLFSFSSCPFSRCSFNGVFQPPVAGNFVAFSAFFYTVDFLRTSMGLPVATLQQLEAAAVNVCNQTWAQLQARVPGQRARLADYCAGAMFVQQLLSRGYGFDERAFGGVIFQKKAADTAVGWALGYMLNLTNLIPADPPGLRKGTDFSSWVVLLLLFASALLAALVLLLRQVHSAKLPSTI
In words: Inhibition of human NTPdase-2 expressed in COS7 cell membranes at 100 uM using ATP as substrate preincubated for 3 mins followed by susbtrate addition and measured after 10 mins by malachite green dye based method.

In assay [8] the target is T4, Ectonucleoside triphosphate diphosphohydrolase 1 (Homo sapiens) (UniProt P49961).
T4 sequence (whole entry): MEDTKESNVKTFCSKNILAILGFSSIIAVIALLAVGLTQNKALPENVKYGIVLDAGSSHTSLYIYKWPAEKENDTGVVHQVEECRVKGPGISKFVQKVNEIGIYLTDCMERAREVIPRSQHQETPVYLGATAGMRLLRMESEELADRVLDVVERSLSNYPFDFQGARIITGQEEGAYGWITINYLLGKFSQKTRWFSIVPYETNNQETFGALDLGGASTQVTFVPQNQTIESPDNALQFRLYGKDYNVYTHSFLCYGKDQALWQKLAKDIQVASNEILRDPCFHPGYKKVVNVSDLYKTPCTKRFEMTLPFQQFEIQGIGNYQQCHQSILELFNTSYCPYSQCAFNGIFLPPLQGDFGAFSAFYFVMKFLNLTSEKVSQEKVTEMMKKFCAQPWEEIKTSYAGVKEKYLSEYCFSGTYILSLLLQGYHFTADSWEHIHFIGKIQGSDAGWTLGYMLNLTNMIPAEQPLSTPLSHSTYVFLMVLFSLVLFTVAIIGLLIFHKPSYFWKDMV
In words: Inhibition of human NTPdase-1 expressed in COS7 cell membranes at 100 uM using ATP as substrate preincubated for 3 mins followed by susbtrate addition and measured after 10 mins by malachite green dye based method.

The target of assay [9] is P2Y purinoceptor 6 (Homo sapiens) (UniProt Q15077). In words: Agonist activity at human P2Y6 receptor expressed in AD293 cells assessed as inositol-1-phosphate accumulation at 100 uM. The class given is functional, cell-based.

Calls of active or inactive are those of the source.

P2Y purinoceptor 2 (Homo sapiens), sequence (P41231 whole entry): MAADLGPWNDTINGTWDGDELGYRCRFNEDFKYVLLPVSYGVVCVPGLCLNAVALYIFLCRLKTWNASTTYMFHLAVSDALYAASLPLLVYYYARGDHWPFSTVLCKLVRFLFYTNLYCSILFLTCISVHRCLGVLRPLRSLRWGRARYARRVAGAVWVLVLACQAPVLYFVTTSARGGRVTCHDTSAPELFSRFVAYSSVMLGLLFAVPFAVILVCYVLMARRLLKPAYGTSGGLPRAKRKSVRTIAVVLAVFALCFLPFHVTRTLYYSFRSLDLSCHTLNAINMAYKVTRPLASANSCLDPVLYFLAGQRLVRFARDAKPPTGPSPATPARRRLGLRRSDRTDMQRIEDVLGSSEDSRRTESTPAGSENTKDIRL

Take `O=c1ccn(COCCOP(=O)(O)C(Cl)(Cl)P(=O)(O)O)c(=O)[nH]1`: the “Inhibition call (active/not active)” value in [1] was “Active”. In [2], the outcome was inactive. In addition, the inhibition result in assay [3], in assay [4] and in [6] was “inactive” each time. In addition, the inhibition result in [5] and in [7] was “Active” in each case. Further, the “inhibition call at 100 uM (active/not active)” value in assay [8] is “Active”.
For the compound `O=c1ccn(COCCOP(=O)(O)O)c(=O)[nH]1`, the “Inhibition call (active/not active)” value in assay [1] was “inactive”. Besides, the result in assay [2] was inactive. For the same compound, the inhibition result in assay [3], in assay [4], in assay [5], in assay [6] and in assay [7] was “inactive” throughout. In addition, the “inhibition call at 100 uM (active/not active)” value in assay [8] is “inactive”.
On to `O=c1ccn(COCCOP(=S)(S)OP(=O)(O)CP(=O)(O)O)c(=O)[nH]1` (stereo not given), for which, in assay [1], the “Inhibition call (active/not active)” value was “Active”. The result in [2] was inactive. For the same compound, the outcome in [9] was Active. The inhibition result in assay [3], in assay [4] and in [6] was “inactive” throughout. In addition, the inhibition entry in [5] and in assay [7] was “Active” throughout. Also, the “inhibition call at 100 uM (active/not active)” value in assay [8] is “Active”.
As to `O=c1ccn(COCCOP(=S)(S)OP(=O)(O)C(Cl)(Cl)P(=O)(O)O)c(=O)[nH]1` (stereo not given), the “Inhibition call (active/not active)” value in [1] is “Active”. The result in assay [2] was inactive. Moreover, in [9], the result was Active. In addition, the inhibition entry in assay [3], in assay [4] and in assay [6] was “inactive” each time. Further, the inhibition result in [5] and in assay [7] was “Active” throughout. For the same compound, in assay [8], the “inhibition call at 100 uM (active/not active)” value is “Active”.
Consider `O=c1ccn(COCCO[PH](=O)O)c(=O)[nH]1`, for which the “Inhibition call (active/not active)” value in assay [1] was “inactive”. In addition, the result in assay [2] was inactive. Further, the inhibition result in assay [3], in assay [4], in assay [5], in assay [6] and in assay [7] was “inactive” in each case. Moreover, in assay [8], the “inhibition call at 100 uM (active/not active)” value is “inactive”.
For `O=c1ccn(COCCOP(=O)(O)CP(=O)(O)O)c(=O)[nH]1`, the “Inhibition call (active/not active)” value in [1] was “Active”. In [2], the outcome was inactive. In addition, the outcome in assay [9] was Active. Moreover, the inhibition result in assay [3] and in assay [4] was “inactive” each time. The inhibition result in [5] and in assay [7] was “Active” each time. Further, in [8], the “inhibition call at 100 uM (active/not active)” value is “Active”.

Values taken from ChEMBL document CHEMBL4311993, “Structure-activity relationship study of NPP1 inhibitors based on uracil-N1-(methoxy)ethyl-β-phosphate scaffold” (Eur J Med Chem, 2019).
